{"source": "ChEMBL document CHEMBL1201862", "about": "“PubChem BioAssay data set” (2004)", "assay_in_all_cases": "growth of human tumour cells (NCI), 48 h", "key": {"LOX IMVI": {"test_system": "LOX IMVI"}, "SF-539": {"test_system": "SF-539"}, "T47D": {"test_system": "T47D"}, "SN12C": {"test_system": "SN12C"}, "PC-3": {"test_system": "PC-3"}, "EKVX": {"test_system": "EKVX"}, "NCI-H226": {"test_system": "NCI-H226"}, "SF-295": {"test_system": "SF-295"}, "RPMI-8226": {"test_system": "RPMI-8226"}, "SK-OV-3": {"test_system": "SK-OV-3"}, "SNB-75": {"test_system": "SNB-75"}, "COLO 205": {"test_system": "COLO 205"}, "CCRF-CEM": {"test_system": "CCRF-CEM"}, "TK-10": {"test_system": "TK-10"}, "CAKI-1": {"test_system": "CAKI-1"}, "NCI-H23": {"test_system": "NCI-H23"}, "HL-60": {"test_system": "HL-60"}, "DU-145": {"test_system": "DU-145"}, "SK-MEL-28": {"test_system": "SK-MEL-28"}, "ACHN": {"test_system": "ACHN"}, "Malme-3M": {"test_system": "Malme-3M"}, "HCC 2998": {"test_system": "HCC 2998"}, "U-251": {"test_system": "U-251"}, "MDA-N": {"test_system": "MDA-N"}, "HCT-116": {"test_system": "HCT-116"}, "OVCAR-8": {"test_system": "OVCAR-8"}, "786-0": {"test_system": "786-0"}, "UACC-257": {"test_system": "UACC-257"}, "NCI-H460": {"test_system": "NCI-H460"}, "SNB-19": {"test_system": "SNB-19"}, "Hs-578T": {"test_system": "Hs-578T"}, "NCI/ADR-RES": {"test_system": "NCI/ADR-RES"}, "BT-549": {"test_system": "BT-549"}, "A498": {"test_system": "A498"}, "SR": {"test_system": "SR"}, "HCT-15": {"test_system": "HCT-15"}, "SK-MEL-5": {"test_system": "SK-MEL-5"}, "UACC-62": {"test_system": "UACC-62"}, "HT-29": {"test_system": "HT-29"}, "A549": {"test_system": "A549"}, "MDA-MB-435": {"test_system": "MDA-MB-435"}, "MOLT-4": {"test_system": "MOLT-4"}, "SW-620": {"test_system": "SW-620"}, "SF-268": {"test_system": "SF-268"}, "IGROV-1": {"test_system": "IGROV-1"}, "HOP-62": {"test_system": "HOP-62"}, "RXF 393": {"test_system": "RXF 393"}, "OVCAR-4": {"test_system": "OVCAR-4"}, "SK-MEL-2": {"test_system": "SK-MEL-2"}, "MDA-MB-231": {"test_system": "MDA-MB-231"}, "HOP-92": {"test_system": "HOP-92"}, "MCF7": {"test_system": "MCF7"}, "UO-31": {"test_system": "UO-31"}, "K562": {"test_system": "K562"}, "OVCAR-5": {"test_system": "OVCAR-5"}, "NCI-H522": {"test_system": "NCI-H522"}, "KM12": {"test_system": "KM12"}, "M14": {"test_system": "M14"}}, "note": "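Dose response: 5 concentrations. Exposure: 48 h. Format: 96-well plates. Endpoint: linear interpolation; highest concentration if not reached. GI50 = concentration required for 50% inhibition of growth.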 Active and inactive are the calls of the source. Cut-off read from the data, not from the text of the source: active = GI50 up to about 1.1 µM and inactive = higher.", "data": [{"smiles": "COCn1c(C)c(C)c2c(=O)oc(C)nc21", "values": [{"measurement": "GI50", "setting": "LOX IMVI", "value": "> 100 µM (inactive)"}, {"measurement": "GI50", "setting": "SF-539", "value": "> 100 µM (inactive)"}, {"measurement": "GI50", "setting": "T47D", "value": "> 100 µM (inactive)"}, {"measurement": "GI50", "setting": "SN12C", "value": "> 100 µM (inactive)"}, {"measurement": "GI50", "setting": "PC-3", "value": "> 100 µM (inactive)"}, {"measurement": "GI50", "setting": "EKVX", "value": "> 100 µM (inactive)"}, {"measurement": "GI50", "setting": "NCI-H226", "value": "> 100 µM (inactive)"}, {"measurement": "GI50", "setting": "SF-295", "value": "> 100 µM (inactive)"}, {"measurement": "GI50", "setting": "RPMI-8226", "value": "> 100 µM (inactive)"}, {"measurement": "GI50", "setting": "SK-OV-3", "value": "> 100 µM (inactive)"}, {"measurement": "GI50", "setting": "SNB-75", "value": "83.4 µM (inactive)"}, {"measurement": "GI50", "setting": "COLO 205", "value": "> 100 µM (inactive)"}, {"measurement": "GI50", "setting": "CCRF-CEM", "value": "> 100 µM (inactive)"}, {"measurement": "GI50", "setting": "TK-10", "value": "> 100 µM (inactive)"}, {"measurement": "GI50", "setting": "CAKI-1", "value": "0.288 µM (active)"}, {"measurement": "GI50", "setting": "NCI-H23", "value": "> 100 µM (inactive)"}, {"measurement": "GI50", "setting": "HL-60", "value": "> 100 µM (inactive)"}, {"measurement": "GI50", "setting": "DU-145", "value": "> 100 µM (inactive)"}, {"measurement": "GI50", "setting": "SK-MEL-28", "value": "> 100 µM (inactive)"}, {"measurement": "GI50", "setting": "ACHN", "value": "> 100 µM (inactive)"}, {"measurement": "GI50", "setting": "Malme-3M", "value": "> 100 µM (inactive)"}, {"measurement": "GI50", "setting": "HCC 2998", "value": "> 100 µM (inactive)"}, {"measurement": "GI50", "setting": "U-251", "value": "> 100 µM (inactive)"}, {"measurement": "GI50", "setting": "MDA-N", "value": "> 100 µM (inactive)"}, {"measurement": "GI50", "setting": "HCT-116", "value": "> 100 µM (inactive)"}, {"measurement": "GI50", "setting": "OVCAR-8", "value": "> 100 µM (inactive)"}, {"measurement": "GI50", "setting": "786-0", "value": "> 100 µM (inactive)"}, {"measurement": "GI50", "setting": "UACC-257", "value": "> 100 µM (inactive)"}, {"measurement": "GI50", "setting": "NCI-H460", "value": "> 100 µM (inactive)"}, {"measurement": "GI50", "setting": "SNB-19", "value": "> 100 µM (inactive)"}, {"measurement": "GI50", "setting": "Hs-578T", "value": "> 100 µM (inactive)"}, {"measurement": "GI50", "setting": "NCI/ADR-RES", "value": "> 100 µM (inactive)"}, {"measurement": "GI50", "setting": "BT-549", "value": "> 100 µM (inactive)"}, {"measurement": "GI50", "setting": "A498", "value": "> 100 µM (inactive)"}, {"measurement": "GI50", "setting": "SR", "value": "> 100 µM (inactive)"}, {"measurement": "GI50", "setting": "HCT-15", "value": "> 100", "unit": "µM"}, {"measurement": "GI50", "setting": "SK-MEL-5", "value": "> 100 µM (inactive)"}, {"measurement": "GI50", "setting": "UACC-62", "value": "> 100 µM (inactive)"}, {"measurement": "GI50", "setting": "HT-29", "value": "> 100 µM (inactive)"}, {"measurement": "GI50", "setting": "A549", "value": "> 100 µM (inactive)"}, {"measurement": "GI50", "setting": "MDA-MB-435", "value": "> 100 µM (inactive)"}, {"measurement": "GI50", "setting": "MOLT-4", "value": "> 100 µM (inactive)"}, {"measurement": "GI50", "setting": "SW-620", "value": "> 100 µM (inactive)"}, {"measurement": "GI50", "setting": "SF-268", "value": "> 100 µM (inactive)"}, {"measurement": "GI50", "setting": "IGROV-1", "value": "> 100 µM (inactive)"}, {"measurement": "GI50", "setting": "HOP-62", "value": "70.8 µM (inactive)"}, {"measurement": "GI50", "setting": "RXF 393", "value": "> 100 µM (inactive)"}, {"measurement": "GI50", "setting": "OVCAR-4", "value": "> 100 µM (inactive)"}, {"measurement": "GI50", "setting": "SK-MEL-2", "value": "> 100 µM (inactive)"}, {"measurement": "GI50", "setting": "MDA-MB-231", "value": "> 100 µM (inactive)"}, {"measurement": "GI50", "setting": "HOP-92", "value": "> 100 µM (inactive)"}, {"measurement": "GI50", "setting": "MCF7", "value": "> 100 µM (inactive)"}, {"measurement": "GI50", "setting": "UO-31", "value": "89.1 µM (inactive)"}, {"measurement": "GI50", "setting": "K562", "value": "> 100 µM (inactive)"}, {"measurement": "GI50", "setting": "OVCAR-5", "value": "> 100 µM (inactive)"}, {"measurement": "GI50", "setting": "NCI-H522", "value": "94.2 µM (inactive)"}, {"measurement": "GI50", "setting": "KM12", "value": "> 100 µM (inactive)"}, {"measurement": "GI50", "setting": "M14", "value": "> 100 µM (inactive)"}]}]}
